Laboratory results from ChEMBL document CHEMBL1158665, “Antipoliovirus structure-activity relationships of some aporphine alkaloids” (J Nat Prod, 1998).
Structures can show the parent of a compound that is named as a salt.

Legend:
[1] = Cytotoxicity against african green monkey Vero cells; format: cell-based; details: chlorocebus sabaeus
[2] = Cytotoxicity against african green monkey Vero cells assessed as drug concentration at which no cellular alteration was microscopically detected; format: cell-based; details: chlorocebus sabaeus, read-out: MTC
[3] = Selectivity index, ratio of CC50 for african green monkey Vero cells to ED50 for Poliovirus 2 Sabin 2; format: toxicity, cell-based
Poliovirus 2 [4] = assay: Antiviral activity against Poliovirus 2 Sabin 2 infected in african green monkey Vero cells at 0.001 multiplicity of infection assessed as inhibition of virus-induced cytopathogenicity; format: functional; details: Enterovirus C, Sabin 2, Vero; read-out: ED50 (the source's name)
Poliovirus 2 [5] = assay: Antiviral activity against Poliovirus 2 Sabin 2 in african green monkey Vero cells assessed as log reduction in virus titers after at 0.01 multiple round of replication at their respective half the maximum tolerated concentration after 32 hrs; format: functional
Poliovirus 2 [6] = assay: Antiviral activity against Poliovirus 2 Sabin 2 in african green monkey Vero cells assessed as log reduction in virus titers after at 0.001 multiple round of replication at their respective maximum tolerated concentration after 32 hrs; format: functional
Poliovirus 2 [7] = assay: Antiviral activity against Poliovirus 2 Sabin 2 in african green monkey Vero cells assessed as log reduction in virus titers after at 0.1 multiple round of replication at their respective half of maximum tolerated concentration after 32 hrs; format: functional
Poliovirus 2 [8] = assay: Antiviral activity against Poliovirus 2 Sabin 2 in african green monkey Vero cells assessed as log reduction in virus titers after at 0.001 multiple round of replication at their respective half the maximum tolerated concentration after 32 hrs; format: functional
Poliovirus 2 [9] = assay: Antiviral activity against Poliovirus 2 Sabin 2 in african green monkey Vero cells assessed as log reduction in virus titers after at 0.1 multiple round of replication at their respective maximum tolerated concentration after 32 hrs; format: functional
Poliovirus 2 [10] = assay: Antiviral activity against Poliovirus 2 Sabin 2 in african green monkey Vero cells assessed as log reduction in virus titers after at 0.01 multiple round of replication at their respective maximum tolerated concentration after 32 hrs; format: functional

SMILES | CC50 [1] | MNTC [2] | selectivity ratio [3] | EC50 (Poliovirus 2 [4]) | Activity (Poliovirus 2 [5]) | Activity (Poliovirus 2 [6]) | Activity (Poliovirus 2 [7]) | Activity (Poliovirus 2 [8]) | Activity (Poliovirus 2 [9]) | Activity (Poliovirus 2 [10])
COc1ccc2c(c1)[C@H](O)[C@@H]1c3c(cc4c(c3-2)OCO4)CCN1C [OLIVERIDINE] | 7 µM | 5 µM | – | – | – | – | – | – | – | –
COc1cc2c(cc1O)C[C@@H]1NCCc3cc(OC)c(OC)c-2c31 [LAUROTETANINE] | 165 µM | 62 µM | 5.3 | 31 µM | 1 | 1.5 | 0.5 | 1 | 1 | 1.5
CO[C@H]1c2ccccc2-c2c3c(cc4c2[C@@H]1N(C)C[C@@H]4O)OCO3 [PACHYSTAUDINE] | 68 µM | 62 µM | 2.2 | 31 µM | – | 0.5 | – | – | 0 | 0.5
COc1cc2c(cc1O)C[C@H]1c3c(cc(OC)c(O)c3-2)CCN1C.Cl [ISOBOLDINE HYDROCHLORIDE] | 217 µM | 125 µM | 14.5 | 15 µM | 1 | 2.5 | 1 | 1.5 | 1.5 | 1.5
COc1cc2c(cc1O)C[C@@H]1NCCc3cc(O)c(OC)c-2c31 [NORBOLDINE] | 95 µM | 62 µM | 1.5 | 62 µM | – | – | – | – | – | –
COc1cc2c(cc1O)C[C@@H]1NCCc3cc4c(c-2c31)OCO4 [ACTINODAPHNINE] | 107 µM | 95 µM | – | – | – | – | – | – | – | –
COc1cc2ccnc3c2c(c1OC)-c1ccccc1C3=O [LYSICAMINE] | 500 µM | 250 µM | – | – | – | – | – | – | – | –
COc1ccc2c(c1)[C@H](OC)[C@@H]1c3c(cc4c(c3-2)OCO4)CCN1C [OLIVERINE HCL] | 9 µM | 7 µM | – | – | – | – | – | – | – | –
COc1cc2c3c(c1OC)-c1ccccc1C[C@H]3N(C)CC2.Cl [NUCIFERINE HYDROCHLORIDE] | 435 µM | 125 µM | 16.7 | 26 µM | 0.5 | 2 | 0.5 | 0.5 | 1 | 1
O=C1c2ccccc2-c2c3c(cc4ccnc1c24)OCO3 [LIRIODENINE] | 48 µM | 31 µM | – | – | – | – | – | – | – | –
COc1cccc2c1C(=O)c1nccc3cc4c(c-2c13)OCO4 [OXOSTEPHANINE] | 28 µM | 15 µM | – | – | – | – | – | – | – | –
COc1cc2c(cc1O)C[C@H]1c3c(cc4c(c3-2)OCO4)CCN1C [CASSYTHICINE] | 47 µM | 31 µM | – | – | – | – | – | – | – | –
COc1c2c3c(c4c1OCO4)-c1ccccc1[C@H](O)[C@H]3N(C)CC2 [GUATTERINE] | 107 µM | 62 µM | 1.7 | 62 µM | – | – | – | – | – | –
COc1cc2c(cc1O)C[C@H]1c3c(cc(OC)c(OC)c3-2)CCN1C | 250 µM | 125 µM | 16.7 | 15 µM | 1 | 2.5 | 0.5 | 1 | 1 | 1.5
COc1cc2c(cc1OC)-c1c(OC)c(OC)cc3c1[C@H](C2)N(C(C)=O)CC3 | 342 µM | 250 µM | 6.8 | 50 µM | 0.5 | 1.5 | 0.5 | 1 | 1.5 | 1.5
COc1cc2c(cc1O)C[C@H]1c3c(cc(O)c(OC)c3-2)CCN1C [BOLDINE] | 250 µM | 125 µM | 2 | 125 µM | – | – | – | – | – | –
COc1cc2c(cc1OC)-c1c(OC)c(OC)cc3c1[C@H](C2)N(C)CC3.O=C(O)/C=C/C(=O)O [GLAUCINE FUMARATE] | 142 µM | 62 µM | 15.8 | 9 µM | 1 | 3 | 0.5 | 1.5 | 1 | 1.5
CO[C@H]1c2ccccc2-c2c3c(cc4c2[C@@H]1NCC4)OCO3 [PACHYPODANTINE] | 25 µM | 20 µM | – | – | – | – | – | – | – | –
